# Values joined by “and” are separate entries in the source; they are usually repeats but may differ in a detail not shown here. Equal values may be shown once.
# How the values were obtained:
# HEK-293 EV cells = assay: Calcium 5 dye [Ca]i assay in HEK-293 empty vector (EV) cells; assay type: cell-based, human; settings: 10 µM; HEK-293 EV cells; percentage of predrug baseline
# Description: (§1) The cells were incubated in a 5% CO2 humidified atmosphere at 37 °C. Upon reaching approximately 90% confluence in 75 cm^2 flasks, they were trypsinized and transferred to poly-D-lysine coated 96-well plates (Corning, Castle Hill, NSW, Australia) in L-15 medium supplemented with 1% FBS, 100 U penicillin and 100 µg streptomycin ml^−1 (1% P/S), and 15 mM glucose (80 µL volume per well). After an overnight incubation (maximum of 16 h) in humidified room air at 37 °C, TRPV1 and TRPA1 receptor expression was induced 4 h before experimentation by adding to each well 10 µL tetracycline solution to a final concentration of 1 µg ml^−1.
# Intracellular calcium [Ca]i levels were assessed using the calcium 5 kit from Molecular Devices (# R8186, Sunnyvale, CA, USA) on a FlexStation 3 Microplate Reader (Molecular Devices, Sunnyvale, CA, USA). […] 90 µL of the dye were loaded into each well of the plate and incubated for 1 h before reading in the FlexStation 3 at 37 °C. […] After 1 min of baseline recording, 20 µL of the drug, dissolved in HBSS with 1% dimethyl sulfoxide (DMSO) (cat # D2650; Sigma-Aldrich, Melbourne, Australia) was added (final DMSO concentration was 0.1% in well).
# (§2) The response to agonists was expressed as a percentage change from the average baseline measurement taken for 60s before adding drug. Changes in fluorescence resulting from the addition of solvent were subtracted before normalization to baseline. Concentration–response curves (CRC), Emax and EC50 values were determined using a three-parameter logistic equation (GraphPad Prism, San Diego, CA, USA). […] Potencies were expressed as pEC50, which is the negative log of EC50 in moles per litre (Molar). Where appropriate, unpaired Student’s t-test were used to compare the responses of individual compounds in different conditions, while a one-way ANOVA followed by Dunnett’s multiple comparisons test was used to assess potential differences in responses elicited by a range of compounds. P < 0.05 was considered statistically significant.
# human TRPV1 = target: T1, human TRPV1 (Homo sapiens, UniProt Q8NER1); assay: Calcium 5 dye [Ca]i assay in HEK-293 Flp-In T-REx cells expressing TRPV1 (agonist response); assay type: cell-based; settings: for Change in Ca5 fluorescence, individual experiments (CRC raw data): TRPV1 cells
# T1 construct: Life Technologies (cells); host or cells: Flp-In T-REx HEK-293
# T1 sequence (Q8NER1 whole entry): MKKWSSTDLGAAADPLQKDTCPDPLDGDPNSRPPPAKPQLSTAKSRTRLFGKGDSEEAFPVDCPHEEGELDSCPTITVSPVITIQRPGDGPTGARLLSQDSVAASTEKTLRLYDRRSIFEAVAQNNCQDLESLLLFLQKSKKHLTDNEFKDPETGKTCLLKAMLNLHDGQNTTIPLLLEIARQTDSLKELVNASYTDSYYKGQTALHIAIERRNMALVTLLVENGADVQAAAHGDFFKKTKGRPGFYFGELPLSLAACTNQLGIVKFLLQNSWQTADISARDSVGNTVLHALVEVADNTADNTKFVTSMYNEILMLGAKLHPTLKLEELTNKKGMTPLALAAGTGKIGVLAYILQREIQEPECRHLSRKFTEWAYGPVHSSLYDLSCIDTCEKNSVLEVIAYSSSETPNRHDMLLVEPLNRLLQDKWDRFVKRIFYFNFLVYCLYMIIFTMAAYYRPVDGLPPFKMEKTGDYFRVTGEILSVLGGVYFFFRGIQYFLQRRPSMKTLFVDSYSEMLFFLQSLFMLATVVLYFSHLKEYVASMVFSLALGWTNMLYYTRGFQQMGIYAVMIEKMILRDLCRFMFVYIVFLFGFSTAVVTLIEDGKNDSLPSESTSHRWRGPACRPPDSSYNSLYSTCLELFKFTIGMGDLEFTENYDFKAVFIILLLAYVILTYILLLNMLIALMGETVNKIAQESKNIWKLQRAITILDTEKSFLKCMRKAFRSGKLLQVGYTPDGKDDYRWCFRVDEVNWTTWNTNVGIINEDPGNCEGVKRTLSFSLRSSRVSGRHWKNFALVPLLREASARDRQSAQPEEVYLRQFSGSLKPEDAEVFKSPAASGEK
# Description: as §1
# (§3) Intracellular calcium [Ca]i levels were assessed using the calcium 5 kit from Molecular Devices (# R8186, Sunnyvale, CA, USA) on a FlexStation 3 Microplate Reader (Molecular Devices, Sunnyvale, CA, USA). […] Probenecid (cat # 50027; Biotium) which helps to prevent expulsion of calcium indicator from the cells was added to a final concentration of 1.25 mM. 90 µL of the dye were loaded into each well of the plate and incubated for 1 h before reading in the FlexStation 3 at 37 °C. Fluorescence was recorded every 2 s (λ excitation = 485 nm, λ emission = 525 nm) for 5 min. After 1 min of baseline recording, 20 µL of the drug, dissolved in HBSS with 1% dimethyl sulfoxide (DMSO) (cat # D2650; Sigma-Aldrich, Melbourne, Australia) was added (final DMSO concentration was 0.1% in well).
# as §2
# human TRPA1 = target: T2, human TRPA1 (Homo sapiens, UniProt O75762); assay: Calcium 5 dye [Ca]i assay in HEK-293 Flp-In T-REx cells expressing TRPA1 (agonist response); assay type: cell-based; settings: for [Ca]i response (change in fluorescence), individual replicates: sheet Figure 3(E)
# T2 construct: Life Technologies (cells); host or cells: Flp-In T-REx HEK-293
# T2 sequence (O75762 whole entry): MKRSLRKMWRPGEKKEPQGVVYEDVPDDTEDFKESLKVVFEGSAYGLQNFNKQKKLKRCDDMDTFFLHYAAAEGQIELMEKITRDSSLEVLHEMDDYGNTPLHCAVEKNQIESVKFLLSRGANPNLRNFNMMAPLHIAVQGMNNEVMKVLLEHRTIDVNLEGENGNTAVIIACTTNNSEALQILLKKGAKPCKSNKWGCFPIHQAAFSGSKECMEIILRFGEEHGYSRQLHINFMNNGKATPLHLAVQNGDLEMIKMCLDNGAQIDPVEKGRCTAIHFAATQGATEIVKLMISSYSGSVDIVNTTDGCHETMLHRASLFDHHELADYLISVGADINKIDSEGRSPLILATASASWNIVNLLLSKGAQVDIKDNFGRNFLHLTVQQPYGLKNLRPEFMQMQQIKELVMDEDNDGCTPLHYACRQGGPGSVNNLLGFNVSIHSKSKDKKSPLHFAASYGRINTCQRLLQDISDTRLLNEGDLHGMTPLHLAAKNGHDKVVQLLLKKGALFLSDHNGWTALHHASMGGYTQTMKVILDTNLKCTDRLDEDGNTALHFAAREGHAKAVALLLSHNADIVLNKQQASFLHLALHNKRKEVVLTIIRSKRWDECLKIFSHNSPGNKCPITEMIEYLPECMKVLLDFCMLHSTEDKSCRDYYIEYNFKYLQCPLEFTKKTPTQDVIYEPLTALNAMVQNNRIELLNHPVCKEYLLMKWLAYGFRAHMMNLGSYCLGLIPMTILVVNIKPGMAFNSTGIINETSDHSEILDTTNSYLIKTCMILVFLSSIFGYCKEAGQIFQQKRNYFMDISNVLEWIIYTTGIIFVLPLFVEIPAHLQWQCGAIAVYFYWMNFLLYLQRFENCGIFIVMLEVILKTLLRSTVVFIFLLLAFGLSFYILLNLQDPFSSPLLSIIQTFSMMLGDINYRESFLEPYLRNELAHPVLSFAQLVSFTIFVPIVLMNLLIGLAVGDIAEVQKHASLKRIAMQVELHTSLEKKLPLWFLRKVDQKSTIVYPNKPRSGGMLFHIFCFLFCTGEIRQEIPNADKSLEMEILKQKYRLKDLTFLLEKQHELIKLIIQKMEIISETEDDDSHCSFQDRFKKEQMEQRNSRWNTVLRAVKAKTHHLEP
# Description: as §1, §3, §2
compound,measurement,setting,value
"CCCCC/C=C\C/C=C\C/C=C\C/C=C\CCCC(=O)NCCO [AEA, anandamide]","Change of Ca5 fluorescence, Mean ± SEM, EV (10 µM)",HEK-293 EV cells,10 ± 2%
same,EC50,human TRPV1,7.94 µM
same,Elevation of [Ca]i in HEK-293 TRPV1 cells compared with HEK-293 EV cells,human TRPV1; 10 µM,significantly greater
same,"Change of Ca5 fluorescence, Mean ± SEM, TRPV1 (10 µM)","human TRPV1; 10 µM, HEK-293 TRPV1 cells, percentage of predrug baseline",188 ± 36 %
same,Maximal TRPV1 response compared with the highest concentration of capsaicin,human TRPV1; 30 µM vs capsaicin 10 µM,did not differ
same,Emax at 30 µM,"human TRPV1; HEK293, read-out: Emax ± SEM % TRPV1 (30 µM)",304 ± 55%
same,"Change in Ca5 fluorescence, individual experiments (CRC raw data)",human TRPV1; log concentration -4.52288 (M),110.333 and 353.13 and 181.656 and 93.5107 and 312.513 and 324.288
same,"Change in Ca5 fluorescence, individual experiments (CRC raw data)",human TRPV1; log concentration -5 (M),107.669 and 250.336 and 142.845 and 78.9426 and 274.449 and 272.34
same,"Change in Ca5 fluorescence, individual experiments (CRC raw data)",human TRPV1; log concentration -5.52288 (M),104.24 and 119.191 and 18.6933 and 67.9069 and 43.3725 and 39.8495
same,"Change in Ca5 fluorescence, individual experiments (CRC raw data)",human TRPV1; log concentration -6 (M),85.0507 and 18.1779 and 2.315 and 21.1299 and 4.82 and -0.1525
same,"Change in Ca5 fluorescence, individual experiments (CRC raw data)",human TRPV1; log concentration -6.52288 (M),25.9314 and 10.5855 and 2.141 and 2.529 and 1.6051 and -0.1939
same,"Change in Ca5 fluorescence, individual experiments (CRC raw data)",human TRPV1; log concentration -7 (M),9.794 and 11.1798 and 5.889 and 1.561 and 3.7 and 2.135
same,Elevation of [Ca]i in HEK-293 TRPA1 cells compared with HEK-293 EV cells,human TRPA1; 10 µM (cinnamaldehyde 300 µM),did not produce a change
same,"Change of Ca5 fluorescence, Mean ± SEM, TRPA1 (10 µM)","human TRPA1; 10 µM, HEK-293 TRPA1 cells, percentage of predrug baseline",78 ± 40%
same,TRPA1 activation at the highest concentration tested,human TRPA1; 30 µM,activated TRPA1
same,TRPA1 response compared with the highest concentration of cinnamaldehyde (300 µM),human TRPA1; 30 µM,significantly smaller
same,"TRPA1 response, Mean± SEM (N)","human TRPA1; 30 µM, one-way ANOVA comparison with cinnamaldehyde 300 µM",206 ± 60
same,Emax at 30 µM,"human TRPA1; HEK293, read-out: Emax ± SEM % TRPA1 (30 µM)",206 ± 60%
same,"[Ca]i response (change in fluorescence), individual replicates",human TRPA1; concentration -4.52288 (log),380.839 and 400.035 and 86.0795 and 138.88 and 106.55 and 121.01
same,"[Ca]i response (change in fluorescence), individual replicates",human TRPA1; concentration -5 (log),270.188 and 95.8276 and 43.3617 and 6.8753 and 19.4528 and 34.7169
same,"[Ca]i response (change in fluorescence), individual replicates",human TRPA1; concentration -5.52288 (log),11.1594 and 5.44 and 3.581 and 5.875
same,"[Ca]i response (change in fluorescence), individual replicates",human TRPA1; concentration -6 (log),11.3796 and 3.6077 and 1.689 and 3.893 and 4.817 and 2.419
same,"[Ca]i response (change in fluorescence), individual replicates",human TRPA1; concentration -6.52288 (log),9.429 and 4.648 and 1.238 and 3.414
same,"[Ca]i response (change in fluorescence), individual replicates",human TRPA1; concentration -7 (log),11.2147 and 3.27 and 3.337 and 2.558

# Source: PMC11949107, “Polyunsaturated fatty acids and their endocannabinoid-related metabolites activity at human TRPV1 and TRPA1 ion channels expressed in HEK-293 cells” (PeerJ, 2025)
